{"source": "paper PMC10319809", "about": "“Chronic UCN2 treatment desensitizes CRHR2 and improves insulin sensitivity” (Nature Communications, 2023)", "key": {"[1]": {"target": "T1, hCRHR2α Gq (Homo sapiens, UniProt Q13324)", "T1 construct": "expressed in transfected cells; host or cells: HEK293 cells (Millipore Sigma), transient PEI co-transfection with biosensor plasmids at Domain Therapeutics", "T1 sequence (Q13324 1-411)": "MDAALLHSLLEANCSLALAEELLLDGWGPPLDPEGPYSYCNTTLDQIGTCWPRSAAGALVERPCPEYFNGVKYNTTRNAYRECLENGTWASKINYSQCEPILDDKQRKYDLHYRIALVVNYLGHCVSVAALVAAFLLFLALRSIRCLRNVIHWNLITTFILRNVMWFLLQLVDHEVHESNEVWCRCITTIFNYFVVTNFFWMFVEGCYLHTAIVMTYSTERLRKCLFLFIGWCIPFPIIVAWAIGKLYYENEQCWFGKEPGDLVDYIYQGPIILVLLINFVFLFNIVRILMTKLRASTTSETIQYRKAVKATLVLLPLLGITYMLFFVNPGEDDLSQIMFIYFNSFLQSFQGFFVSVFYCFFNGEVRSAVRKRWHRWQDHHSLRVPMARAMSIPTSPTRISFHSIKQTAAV", "test": "ebBRET EMTA, Gq biosensor", "assay_type": "cell-based", "conditions": "HEK293 cells, CRHR2a, n = 2 independent experiments", "description": "Typically, GPCR desensitization is carried out through the recruitment of β-Arrestins or alternative G-proteins to the receptor. To identify whether these proteins are recruited to CRHR2 in response to UCN2, enhanced bystander bioluminescence resonance energy transfer (ebBRET)-based effector membrane translocation assays (EMTA) were carried out in HEK293 cells[28],[29]. Cells were co-transfected with plasmids expressing unmodified CRHR2a (alpha isoform) and one of various pathway-specific biosensors. […]\nEffector membrane translocation biosensor assays (bioSensAll®) were conducted at Domain Therapeutics NA Inc. (Montreal, QC, Canada) and described in cells[28],[29]. […] Briefly, DNA and PEI were diluted separately in 150 mM NaCl, mixed and then incubated for at least 20 min at room temperature (note: salmon sperm DNA (Invitrogen) was used to adjust the total amount of DNA transfected to a final quantity of 1 ug per mL of cell culture to be transfected). During the 20-minute incubation, HEK293 cells were detached, counted and resuspended into cell culture medium to a final density of 350,000 cells per mL. […] Cells were then incubated at room temperature for 10 min and BRET readings subsequently collected with a 0.4 s integration time on a Synergy NEO plate reader (BioTek Instruments, Inc., USA; filters: 400 nm/70 nm, 515 nm/20 nm). […]"}, "[2]": {"test_system": "AKT1S1, IRS1, AKT phosphorylation", "test": "Western blot of p-AKT1S1, p-IRS1, p-AKT in gastrocnemius muscle", "assay_type": "in vivo, mouse", "description": "Animal tissues were snap-frozen in liquid nitrogen and stored at −80 °C. Frozen tissues were homogenized in ice-cold RIPA buffer (Sigma Aldrich, St. Louis, MO), and protein concentrations were determined using a BCA protein assay (Thermo Fisher Scientific, Waltham, MA). Protein extracts were separated on NuPAGE 4–20% Bis-Tris gels (Bio-Rad, Hercules, CA) and blotted onto PVDF membranes (Bio-Rad, Hercules, CA). Membranes were blocked for 1 h at room temperature in TBST (0.1%) containing 5% milk. Membranes were then incubated overnight at 4 °C with primary antibodies against pSer183-AKT1S1, total AKT1S1, pSer3-IRS1, total IRS1, pSer473-AKT, and total AKT (Cell Signaling, Danvers, MA #5936, #2610, #2385, #2382, #4060, and #4691, respectively) diluted 1:1000. Following three washing steps with TBST (0.1%), membranes were incubated with HRP-conjugated secondary antibodies for 1 h at room temperature. After thorough washing, proteins were visualized with SuperSignal West Dura Extended Duration Substrate (Thermo Fisher Scientific, Waltham, MA) on the Bio-Rad ChemiDoc MP. Immunoreactive bands were quantified using Image J Software (NIH)."}}, "note": "“And” between values parts separate entries of the source, which are not always exact repeats. Identical values can stand only once. Where no end group is shown, it is not given here.", "data": [{"substance": "IVLSLDVPIGLLQILLEQARARAAREQATTNARILARVGHC-NH2 (C-terminus assumed) [UCN2, Urocortin 2]", "values": [{"measurement": "Gq recruitment", "setting": "[1]", "value": "not recruited"}, {"measurement": "Relative pAKT1s1/AKT1s1", "setting": "[2]; Fig 5F, UCN2 vs Saline, individual samples", "value": "0.4889 and 0.4355 and 0.6101 and 0.3366"}, {"measurement": "Relative pIRS1/IRS1", "setting": "[2]; Fig 5G, UCN2 vs Saline, individual samples", "value": "0.5347 and 0.4912 and 0.4136 and 0.3459"}, {"measurement": "Relative pAKT/AKT", "setting": "[2]; Fig 5H, UCN2 vs Saline, individual samples", "value": "0.5139 and 0.5838 and 0.5951 and 0.5852"}, {"measurement": "AKT1S1, IRS1 and AKT phosphorylation, acute treatment", "setting": "[2]; gastrocnemius, acute UCN2, Western blot", "value": "dephosphorylation"}]}]}
